# Values quoted from earlier work as cited in EP1935412A2, “Pharmaceutical composition containing 5-chloro-1-[1-[3-(2-oxo-2,3-dihydro-1H-benzimidazol-1-yl)propyl]piperidine-4-yl]-1,3-dihydro-2H-benzimidazol-2-one and method of preparing same” (GALENIX DEVELOPPEMENT, priority 2006, dated 2008).
# Details: dans l'eau
smiles,measurement,value
"O=c1[nH]c2ccccc2n1CCCN1CCC(n2c(=O)[nH]c3cc(Cl)ccc32)CC1 [dompéridone, 5-chloro-1-[1-[3-(2-oxo-2,3-dihydro-1H-benzimidazol-1-yl)propyl]pipéridin-4-yl]-1,3-dihydro-2H-benzimidazol-2-one]",Solubility in water,pratiquement insoluble dans l'eau
